Reference: patent US12636370B2, “Combination therapy for treatment of cancer” (Institute For Cancer Research, priority 2019, dated 2026)

Tests used:
Format in all cases: cell-based
OVCAR8 JQ1-R cells [1] = test: Apoptosis by cleaved PARP Western blot, OVCAR8 JQ1-R cells
OVCAR8 ARV-R cells [2] = test: Apoptosis by cleaved PARP Western blot, OVCAR8 ARV-R cells
[3] = system: translation markers, RNA pol II, MYC; test: Western blot of translation, BRD4-targets and MYC signaling, OVCAR8 cells; conditions: 500 nM, 48 hours
[4] = system: KURAMOCHI, COV362 and OVCAR5 MZ1-R cells; test: CellTiter-Glo cell viability, KURAMOCHI, COV362 and OVCAR5 MZ1-R cells; conditions: COV362 and OVCAR5, escalating doses, 5 days
OVCAR8 cells [5] = test: CellTiter-Glo cell viability, OVCAR8 parental cells; conditions: dose escalation, 5 days
OVCAR8 ARV-R cells [6] = test: CellTiter-Glo cell viability, OVCAR8 ARV-R cells; conditions: escalating doses, 5 days
PEO1 JQ1-R cells = test: CellTiter-Glo cell viability, PEO1 JQ1-R cells; conditions: escalating doses, 5 days
[7] = system: BET proteins (BRD2, BRD3, BRD4); test: Western blot of BET proteins and BRD4 targets, OVCAR8 MZ1-R cells; conditions: Western blot
OVSAHO cells = test: Combination treatment of OVSAHO cells; conditions: BRD4 overexpressing HGSOC cell line OVSAHO
BET proteins, FOSL1, MYC = test: Western blot of BET proteins and BRD4 targets, JQ1-R cells
OVCAR8 cells [8] = test: Single-run proteome analysis and RNA-seq, OVCAR8 cells; conditions: 48 hours, single-run proteome analysis
Experimental: Enrichment maps of pathways repressed by short-term BBD generated from single-run proteome profiles of OVCAR8 cells treated with BBDs (MZ1 or ARV825) for 48 hours were prepared (data not shown). Statistical differences in protein log 2 LFQ z-scores comparing BBDs or BBIs to control treated cells was determined by paired T-Test Benjamini-Hochberg adjusted p values at FDR of <0.05 using Perseus Software. […] Enrichment maps were generated in Cytoscape using the Enrichment Map app v2.2.1. […] Statistical differences in protein log 2 LFQ z-scores comparing BBDs or BBIs to control treated cells was determined.

SW48 (KRAS WT) cells = test: Cell-Titer Glo cell viability, SW48 (KRAS WT) cells
Experimental: (§1) K-ras mutations promote resistance to BET protein degraders that can be overcome by MTORC1 inhibitors. Briefly, isogenic SW48 colorectal cancer cells expressing wild-type or mutant (G12D) K-ras were treated with increasing doses of MZ1 and cell viability was assessed. Expression of K-ras mutants promote resistance to MZ1 therapy (FIG. 18, Panel A). Immunoblot analysis depicts activation of translation by forced expression of K-ras G12D mutants in SW48 cells (FIG. 18, Panel B). SW48 cells expressing wild-type or K-ras G12D mutants were treated with DMSO, 2 μM RAD001, increasing doses of MZ1 or 2 μM RAD001+increasing doses of MZ1 for 4 hours and BRD4 protein assessed by Western blot. A Cell-Titer Glo assay was performed for cell viability of SW48 (KRAS G12D) cell lines treated with increasing concentrations of RAD001, MZ1 or the combination of RAD001 and MZ1 and cultured for 120 hours. Data were analyzed as % cell viability of DMSO control, presented as means of 3 independent assays. […] Data were analyzed as % cell viability of DMSO control, presented as means of 3 independent assays. […]

[9] = system: BET proteins (BRD2, BRD3, BRD4); test: Western blot of BET protein levels, OVCAR8 parental cells
[10] = system: BET proteins (BRD2, BRD4); test: Western blot of BET proteins, KURAMOCHI, COV362 and OVCAR5 MZ1-R cells
OVCAR8 MZ1-R cells = test: CellTiter-Glo cell viability, OVCAR8 MZ1-R cells; conditions: OVCAR8 MZ1-R, escalating doses, 5 days
BRD4 = target: T1, BRD4 (Homo sapiens, UniProt O60885); test: Western blot of BRD4 protein, SW48 K-ras G12D cells; conditions: 4 hours
T1 construct: endogenous in cells
Experimental: as §1

[11] = system: BET proteins (BRD2, BRD3, BRD4); test: Western blot of BET proteins, OVCAR8 ARV-R cells
[12] = system: RTKs, EGFR, ERBB2, ERBB3, FGFR1, and IGF1R; test: Western blot of kinase (RTK) protein levels, OVCAR8 cells; conditions: 500 nM, 48 hours
[13] = system: RTKs FGFR1, FGFR2, FGFR3, IGF1R and ERBB4; test: Western blot of RTK protein levels, KURAMOCHI and COV362 cells; conditions: 500 nM, 48 hours
kinome = test: MIB-MS kinome profiling, OVCAR8 cells; conditions: 48 hours
SW48 (KRAS G12D) cells = test: Cell-Titer Glo cell viability, SW48 (KRAS G12D) cells
Experimental: as §1

OVCAR8 JQ1-R cells [14] = test: CellTiter-Glo cell viability, OVCAR8 JQ1-R cells; conditions: escalating doses, 5 days

Structure (SMILES): Cc1ncsc1-c1ccc(CNC(=O)[C@@H]2C[C@@H](O)CN2C(=O)[C@@H](NC(=O)COCCOCCOCCNC(=O)C[C@@H]2N=C(c3ccc(Cl)cc3)c3c(sc(C)c3C)-n3c(C)nnc32)C(C)(C)C)cc1 [MZ1]
- apoptosis (OVCAR8 JQ1-R cells [1]): induced apoptosis
- apoptosis (OVCAR8 ARV-R cells [2]): failed to reduce BET proteins, block growth or induce apoptosis
- MYC protein levels [3]: reduced MYC protein levels
- phosphorylation of translation markers ([3]; relative to cis-MZ1 or JQ1): distinctly reduced phosphorylation of FOX01/3 (T24/32), P70S6 Kinase (T389), pEIF4E (S209) and p4EBP1 (T37/46)
- cell viability / growth of MZ1-R cells compared with parental cells [4]: rightward shift
- GI50 (OVCAR8 cells [5]): 142 nM
- cell viability of ARV-R cells compared with parental cells (OVCAR8 ARV-R cells [6]): failed to reduce BET proteins, block growth or induce apoptosis
- cell killing / viability (PEO1 JQ1-R cells): can be killed by treatment with BET PROTAC MZ1
- BET protein levels [7]: insufficient to degrade BRD2, BRD3 or BRD4
- dose sufficient to induce sensitivity towards GSK529A, lapatinib or RAD001 (OVSAHO cells): 10 nM
- BET protein levels (BET proteins, FOSL1, MYC): degraded BET proteins
- BRD4 target (FOSL1, MYC) protein levels (BET proteins, FOSL1, MYC): reduced MYC/FOSL1 protein levels
- global protein level changes (OVCAR8 cells [8]): uniquely downregulated proteins involved in ribosome and translation signaling
- inhibition of viability (SW48 (KRAS WT) cells; SW48 K-Ras WT cells, single agent, low concentrations): > 50%
- GI50 (SW48 (KRAS WT) cells; SW48 parental (wild-type K-Ras) cells): 0.63 nM
- BET protein levels [9]: degraded BET proteins in a concentration-dependent manner
- BET protein levels [10]: failed to mediated degradation of BET proteins
- cell viability of MZ1-R cells compared with parental cells (OVCAR8 MZ1-R cells): rightward shift
- BRD4 degradation (BRD4): impaired the degradation of BRD4
- BET protein levels [11]: failed to reduce BET proteins, block growth or induce apoptosis
- RTK protein levels [12]: MZ1-specific reduction of RTKs, EGFR, ERBB2, ERBB3, FGFR1, and IGF1R
- RTK protein levels [13]: downregulation of RTKs protein levels such as FGFR1, FGFR2, FGFR3, IGF1R and ERBB4
- kinase MIB-binding (kinome): uniquely increased MIB-binding of INSR, CDK7, EPHA4 and EPHA2
- GI50 (SW48 (KRAS G12D) cells; SW48 cells harboring K-Ras G12D mutation): 63 nM
- shift in GI50, K-Ras mutant vs parental cells (SW48 (KRAS G12D) cells; SW48 isogenic cells): 10 fold
- cell viability of JQ1-R cells (OVCAR8 JQ1-R cells [14]): inhibited cell viability
